These results are taken from patent US9856234B2, “Heterocyclic compounds and their use as glycogen synthase kinase 3 inhibitors” (ABBVIE INC., priority 2006, dated 2018).

In general, IC50 refers to the midpoint of a concentration-inhibition curve.

The assay deals with T1, human Glycogen Synthase Kinase-3 beta (hGSK-3β) (Homo sapiens, UniProt P49841).
T1 construct: purchased Upstate cell signaling solutions
In words: Biochemical hGSK-3Beta assay (33P-ATP phosphorylation of biotinylated peptide substrate). The settings on record: 10 μM ATP, 30 minutes at room temperature; read-out: GSK-3β IC50. As to the method:
Methods—Biochemical hGSK-3Beta Assay
Compounds were tested for their ability to inhibit human Glycogen Synthase Kinase-3 beta (hGSK-3β) to phosphorylate biotin-[…](pS)EDEEE. Compounds were incubated with 0.5 μCi 33P-ATP, 10 μM ATP, 0.0125 U hGSK-3β (Upstate cell signaling solutions) and 1 μM substrate (biotin-[…](pS)EDEEE) in 50 mM HEPES, 10 mM MgCl2, […], 1 mM DTT, 0.0075% Triton, 2% DMSO (total volume 50 μL) for 30 minutes at room temperature. The incubation was stopped by addition of an equal volume of 100 mM EDTA, 4M NaCl. 80 μL of this mixture was added to streptavidin-coated Flashplates (PerkinElmer). Following a wash step, 33P incorporation was quantified on a MicroBeta microplate liquid scintillation counter (Perkin Elmer). IC50's were determined by fitting a sigmoidal dose-response curve to the counts obtained at the different concentrations in Graph Pad Prism.

T1 sequence (P49841 whole entry): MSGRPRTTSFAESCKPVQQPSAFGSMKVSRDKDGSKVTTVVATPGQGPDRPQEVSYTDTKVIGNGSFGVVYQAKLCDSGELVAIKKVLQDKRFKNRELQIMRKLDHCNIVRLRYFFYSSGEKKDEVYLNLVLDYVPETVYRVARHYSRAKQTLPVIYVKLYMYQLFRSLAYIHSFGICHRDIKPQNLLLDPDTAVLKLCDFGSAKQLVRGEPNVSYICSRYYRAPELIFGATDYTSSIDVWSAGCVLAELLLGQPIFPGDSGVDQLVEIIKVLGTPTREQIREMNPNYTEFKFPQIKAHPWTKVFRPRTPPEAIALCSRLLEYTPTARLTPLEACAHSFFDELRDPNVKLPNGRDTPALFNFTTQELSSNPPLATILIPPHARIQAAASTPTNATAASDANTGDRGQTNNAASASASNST

In the case of “1-(7-Bromoquinolin-4-yl)-3-(pyrazin-2-yl)urea [Example 28]”, the half-inhibitory concentration (IC50) was under 100 nM.
For the compound “1-(8-Bromoquinolin-4-yl)-3-(pyrazin-2-yl)urea [Example 37]”, the IC50 was under 100 nM.
For “1-(Pyrazin-2-yl)-3-(pyridin-4-yl)urea [Example 24]”, the IC50 lay in the range of 100 to 10000 nM.
As to “1-Methyl-1-pyrazin-2-yl-3-(6-trifluoromethyl-quinolin-4-yl)-urea [Example 22]”, the IC50 is over 10000 nM.
In the case of `O=C(Nc1cnccn1)Nc1cc(C(F)(F)F)nc2ccccc12` [Example 1, 1-Pyrazin-2-yl-3-(2-trifluoromethyl-quinolin-4-yl)-urea], the IC50 lay within 100 to 10000 nM.
Consider `O=C(Nc1cnccn1)Nc1ccnc2ccc(Br)cc12` [Example 2, 1-(6-Bromo-quinolin-4-yl)-3-pyrazin-2-yl-urea], for which the IC50 was under 100 nM.
For `O=C(Nc1cnccn1)Nc1c2c(nc3ccccc13)CCCC2` [Example 5, 1-Pyrazin-2-yl-3-(1,2,3,4-tetrahydro-acridin-9-yl)-urea], the half-maximal inhibitory concentration (IC50) lay in the range of 100 to 10000 nM.
Regarding `O=C(Nc1cnccn1)Nc1cncc2ccccc12` [Example 6, 1-Isoquinolin-4-yl-3-pyrazin-2-yl-urea], the half-inhibitory concentration (IC50) is 100 to 10000 nM.
Take `O=C(Nc1cnccn1)Nc1cccc2ccccc12` [Example 7, 1-Naphthalen-1-yl-3-pyrazin-2-yl-urea]: the half-inhibitory concentration (IC50) is over 10000 nM.
With `Cc1cc(NC(=O)Nc2cnccn2)c2ccccc2n1` [Example 12, 1-(2-Methyl-quinolin-4-yl)-3-pyrazin-2-yl-urea], the IC50 is 100 to 10000 nM.
Under `O=C(Nc1cnccn1)Nc1cccc2ccncc12` [Example 19, 1-Isoquinolin-8-yl-3-pyrazin-2-yl-urea] stands 100 to 10000 nM; under `O=C(Nc1cnccn1)Nc1cccc2cnccc12` [Example 20, 1-Isoquinolin-5-yl-3-pyrazin-2-yl-urea], 100 to 10000 nM; under `O=C(Nc1cnccn1)Nc1cccc2ncccc12` [Example 21, 1-Pyrazin-2-yl-3-quinolin-5-yl-urea], 100 to 10000 nM.
Under `O=C(Nc1cnccn1)Nc1ccnc2cc(I)ccc12` [Example 27, 1-(7-Iodoquinolin-4-yl)-3-(pyrazin-2-yl)urea] stands under 100 nM; under `O=C(Nc1ccccn1)Nc1ccnc2cc(C(F)(F)F)ccc12` [Example 29, 1-(Pyridin-2-yl)-3-(7-(trifluoromethyl)quinolin-4-yl)urea], 100 to 10000 nM.
With `O=C(Nc1ccccc1)Nc1ccnc2ccccc12` [Example 30, 1-Phenyl-3-(quinolin-4-yl)urea, reference compound], the IC50 is over 10000 nM.
`Cc1cccc2c(NC(=O)Nc3cnccn3)ccnc12` [Example 31, 1-(8-Methylquinolin-4-yl)-3-(Pyrazin-2-yl)urea]: the IC50 is under 100 nM.
For the compound `O=C(Nc1cnccn1)Nc1ccnc2c(Cl)cccc12` [Example 32, 1-(8-Chloroquinolin-4-yl)-3-(pyrazin-2-yl)urea], the 50% inhibitory concentration (IC50) was under 100 nM.
With `O=C(Nc1cnccn1)Nc1ccnc2c(I)cccc12` [Example 34, 1-(8-Iodoquinolin-4-yl)-3-(pyrazin-2-yl)urea], the IC50 is under 100 nM.
As for `O=C(Nc1cnccn1)Nc1c(Br)cnc2ccccc12` [Example 35, 1-(3-Bromoquinolin-4-yl)-3-(pyrazin-2-yl)urea], the IC50 lay in the range of 100 to 10000 nM.
`O=C(Nc1cnc2ccccc2c1)Nc1cnccn1` [Example 40, 1-(Pyrazin-2-yl)-3-(quinolin-3-yl)urea, reference compound]: the IC50 was over 10000 nM.
